{"source": "patent US7951359B2", "about": "“Compositions and methods for therapy or prevention of chemotherapy-induced neuropathy” (Merck Serono SA, priority 2004, dated 2011)", "key": {"taxol induced neuropathy": {"system": "taxol induced neuropathy", "experiment": "Electrophysiological monitoring in taxol induced neuropathy, co-administration", "type": "in vivo, rat", "method": "The aim of the following experiment was to investigate the potential neuroprotective effect of IL6 in an additional model of chemotherapeutic induced neuropathy mediated by taxol. The potential preventive effect of IL-6 co-administration was tested. Administration of IL-6 was initiated together with taxol administration. The doses of IL-6 of 3 and 10 μg/kg were administered daily or in the case 10 μg/kg also only 3 times per week.\nFemales 10 weeks old aged Dark Agouti rats were used, 12 animals per group were included as following\nThe taxol was diluted in a solution of cremophor/ethanol/dextrose 5% and administered twice a week during 4 weeks.\n4-MC and test compounds treatment was initiated the first day of intoxication and was stopped at the end of the study.\nThe study was performed on 8 weeks (1 week for the baseline, 4 weeks for the taxol intoxication and 3 weeks of recovery).\nControl, taxol, and taxol-IL-6 co-administered group of rats at the indicated doses were subjected to electrophysiological monitoring to assess the effect of IL-6 in taxol-induced loss of fiber/nerve function.\n(§1) Sensitive nerve conduction velocity (SNCV) was also recorded. The tail skin electrodes were placed as follows: a reference needle inserted at the base of the tail and an anode needle placed 30 mm away from the reference needle toward the extremity of the tail. A ground needle electrode was inserted between the anode and reference needles. The caudal nerve was stimulated with a series of 20 pulses (for 0.2 ms) at an intensity of 12.8 mA. The velocity was expressed in m/s.\nH-wave reflex was recorded in the hind footpad muscle after stimulation of the sciatic nerve. […] The sciatic nerve was stimulated with a single 0.2 ms pulse at supramaximal intensity. The amplitude (mV) of H wave and the proportion of animal lacking H wave response were the parameters studied."}, "[1]": {"system": "Hybridoma growth factor (HGF) activity", "experiment": "Hybridoma growth factor (HGF) activity of IL-6", "type": "cell-based", "conditions": "based on Hybridoma growth factor (HGF) activity", "description": "Recombinant human IL-6 (r-hlL-6) is produced in genetically engineered Chinese Hamster Ovary (CHO) cells. The production process begins with the growth and expansion of cells from a working cell bank (WCB) and continues under conditions where r-hlL-6 is secreted into the culture medium. The r-hlL-6 was harvested and purified from culture medium of the engineered cells."}, "[2]": {"system": "vincristine induced neuropathy", "experiment": "Walking test (motor coordination) in vincristine-treated rats", "type": "in vivo, rat", "conditions": "IL-6 0.3, 1, 3, 10 μg/kg SC daily; 2 and 3 weeks", "method": "The motor coordination was assessed using walking test, which consists at measuring the time taken by a rat placed at one extremity of a 100 cm-long horizontal wooden rod of 5.5 cm diameter, 40 cm above the table, to cover a distance of 1 m on this rod. Three tests (maximum duration: 60 s each) were performed, and the mean value was calculated and retained as characteristic value. If the animal fell down, it was scored with a maximum of 60 s."}, "[3]": {"system": "vincristine induced neuropathy", "experiment": "Hindpaw skin biopsy, density of dermal nerve fibers in vincristine-treated rats", "type": "in vivo, rat", "conditions": "IL-6 10 μg/kg", "quoted_text": "A 5-10 mm diameter area of skin was punch-biopsied from the hindpaw. Skin samples were immediately fixed overnight in paraformaldehyde at 4° C., incubated (overnight) in 30% sucrose in 0.1 M PBS for cryoprotection, embedded in OCT and frozen at −80° C. until cryocut. 50 μm-thick cryosections were then cut vertical to the skin surface with a cryostat. Free-floating sections were incubated for 7 days in a bath of rabbit anti-protein gene product 9.5 (1:10000; Ultraclone, Isle of Man, UK) at 4° C. The sections were then processed to reveal immunoreactivity according to the ABC peroxidase method. Briefly, they were incubated in for 1 hr with biotinylated anti-goat antibody (1:200), then 30 min in the avidin biotinylated complex at room temperature. Peroxidase activity was visualized using DAB system. Sections were then counterstained with eosin or hematoxylin. Sections were dehydrated, cleared with bioclear and mounted on eukitt. The number of dermal nerves of 3 microscope fields was counted manually under 40 magnification view."}, "[4]": {"conditions": "patients with myelodysplastic syndromes and trombocytopenia; cited from earlier work"}, "[5]": {"system": "vincristine induced neuropathy", "experiment": "Electromyography (EMG) in vincristine-treated rats", "type": "in vivo, rat", "method": "In parallel to behavioral tests, electrophysiological test as described in Example 17, were carried out to evaluate fiber/nerve function in vincristine-administered rats vis-à-vis rats co-administrated with IL-6.\nElectrophysiological recordings were performed using a Neuromatic 2000M electromyograph (EMG) (Dantec, Les Ulis, France). Rats were anaesthetized by IP injection of 60 mg/kg ketamine chlorhydrate (Imalgene 500®, Rhône Merieux, Lyon, France). The normal body temperature was maintained around […] with a heating lamp and verified using a contact thermometer (Quick, Bioblock Scientific, Illkirch, France) placed on the tail surface.\nCompound muscle action potential (CMAP) of M wave signal (or electrically evoked muscle potential) was recorded in the gastrocnemius muscle after stimulation of the sciatic nerve. M wave reflects the current developed during the action potential of muscle fibers. A reference electrode and an active needle were placed in the hind paw. A ground needle was inserted on the lower back of the rat. Sciatic nerve was stimulated with a single 0.2 ms pulse at supramaximal intensity. The […] of the motor wave was recorded and expressed in ms.\nas §1\nH-wave reflex was recorded in the hind footpad muscle after stimulation of the sciatic nerve. A reference electrode and a ground needle were placed on the lower back of the rat. The sciatic nerve was stimulated with a single 0.2 ms pulse at supramaximal intensity. The amplitude (mV) of H wave and the proportion of animal lacking H wave response were the parameters studied."}, "[6]": {"conditions": "monkeys; cited from earlier work"}}}
{"substance": "IL-6: Recombinant human IL-6 produced in genetically engineered Chinese Hamster Ovary (CHO) cells", "values": [{"measurement": "H wave latency under taxol", "setting": "taxol induced neuropathy; IL-6 3 or 10 μg/kg daily or 10 μg/kg 3 times per week, sc", "value": "prevent/reduce H wave latency"}, {"measurement": "alterations in SNCV by taxol", "setting": "taxol induced neuropathy; IL-6 3 or 10 μg/kg daily or 3 times per week", "value": "prevent alterations in SNCV"}, {"measurement": "reduction in H wave amplitude by taxol", "setting": "taxol induced neuropathy; IL-6 at all the dosages tested, throughout the experiment", "value": "significantly prevented the reduction in H wave amplitude"}, {"measurement": "preventive effects compared with 4-MC co-administration", "setting": "taxol induced neuropathy; IL-6 vs 4-MC", "value": "more significant than those of 4-MC co-administration"}, {"measurement": "potency", "setting": "[1]", "value": "23.3×10^6 IU/ml"}, {"measurement": "walking test, time to traverse the rod versus vincristine alone", "setting": "[2]", "value": "traversed the rod faster"}, {"measurement": "dermal fiber loss by vincristine", "setting": "[3]", "value": "fully prevented"}, {"measurement": "maximum dose tolerated", "setting": "[4]", "value": 3.75, "unit": "µg/kg/day"}, {"measurement": "CMAP latency time", "setting": "[5]; IL-6 10 μg/kg SC daily with vincristine", "value": "fully preserved their CMAP latency time"}, {"measurement": "vincristine-induced CMAP latency", "setting": "[5]; IL-6 0.3-10 μg/kg SC daily, p<0.05", "value": "reduced"}, {"measurement": "SNCV in vincristine treated animals", "setting": "[5]; IL-6 1-10 μg/kg SC daily", "value": "full restoration of SNCV"}, {"measurement": "H wave amplitude preservation", "setting": "[5]; IL-6 1-10 μg/kg SC daily with vincristine", "value": "fully preserved the H wave amplitude"}, {"measurement": "protection against loss of M wave amplitude, duration", "setting": "[5]; IL-6 3-10 μg/kg SC daily with vincristine", "value": "stable throughout the experiment"}, {"measurement": "prevention of vincristine-induced loss of M wave amplitude", "setting": "[5]; IL-6 all doses tested (0.3-10 μg/kg SC daily)", "value": "prevent vincristine-induced loss of M wave amplitude"}, {"measurement": "protection against vincristine-induced fiber/nerve function loss compared with 4-MC", "setting": "[5]; IL-6 vs 4-MC 10 μg/kg IP", "value": "confers better protection that 4-MC"}, {"measurement": "active dose as thrombopoietic factor", "setting": "[6]", "value": 0.01, "unit": "mg/kg"}]}
